# Test results reported in patent publication US20050159432A1, “Short form c-Maf transcription factor antagonists for treatment of glaucoma” (Alcon, Inc., priority 2003, published 2005).
# How the values were obtained:
# [1] = tested on: short-form c-Maf gene expression; experiment: QPCR analysis of short-form c-Maf gene expression in TM70A trabecular meshwork cells; type: cell-based, Human; details: 10^−7 M dexamethasone, c-Maf/18S normalized ratio, n=3
# Excerpt: Human trabecular meshwork (TM) cells were derived from donor eyes (Central Florida Lions Eye and Tissue Bank, Tampa, Fla.) and cultured as previously described (Steely, et al. (1992), Invest Ophthalmol Vis Sci 33(7): 2242-50; Wilson, et al. (1993), Curr Eye Res 12(9): 783-93; Clark, et al. (1994), Invest Ophthalmol Vis Sci 35(1): 281-94.; Dickerson, et al. (1998), Exp Eye Res 66(6): 731-8; Wang, et al. (2001), Mol Vis 7: 89-94). TM cells were derived from pools of four each of either normal or glaucoma cell lines. Total RNA was isolated from TM cells from each pool using TRIZOL® reagent according to the manufacturer's instructions (Invitrogen, Carlsbad, Calif.). […]
# Measurement of short form c-Maf gene expression was performed by quantitative real-time RT-PCR (QPCR) using an ABI PRISM® 7700 Sequence Detection System (Applied Biosystems) essentially as described Shepard, et al. (2001) Invest Ophthalmol Vis Sci 42(13): 3173-81. […] The “Minor Groove Binding Non-Fluorescent Quencher” was bound to the 3′ end of the probe and is used to quench the fluorescence from 6FAM. […] Quantification of relative cDNA concentrations was done using the relative standard curve method as described in PE Biosystems User Bulletin #2, ABI PRISM® 7700 Sequence Detection System, 2001 (Applied BioSystems). […]
# [2] = tested on: short-form c-Maf gene expression; experiment: QPCR analysis of short-form c-Maf gene expression in SGTM2697 glaucomatous trabecular meshwork cells; type: cell-based, Human
# Excerpt: Human trabecular meshwork (TM) cells were derived from donor eyes (Central Florida Lions Eye and Tissue Bank, Tampa, Fla.) and cultured as previously described (Steely, et al. (1992), Invest Ophthalmol Vis Sci 33(7): 2242-50; Wilson, et al. (1993), Curr Eye Res 12(9): 783-93; Clark, et al. (1994), Invest Ophthalmol Vis Sci 35(1): 281-94.; Dickerson, et al. (1998), Exp Eye Res 66(6): 731-8; Wang, et al. (2001), Mol Vis 7: 89-94). TM cells were derived from pools of four each of either normal or glaucoma cell lines. Total RNA was isolated from TM cells from each pool using TRIZOL® reagent according to the manufacturer's instructions (Invitrogen, Carlsbad, Calif.).
# First strand cDNA was generated from 1 μg of total RNA using random hexamers and TAQMAN® Reverse Transcription reagents according to the manufacturer's instructions (Applied Biosystems, Foster City, Calif.). The 100 μl reaction was subsequently diluted 20-fold to achieve an effective cDNA concentration of 0.5 ng/μl.
# Measurement of short form c-Maf gene expression was performed by quantitative real-time RT-PCR (QPCR) using an ABI PRISM® 7700 Sequence Detection System (Applied Biosystems) essentially as described Shepard, et al. (2001) Invest Ophthalmol Vis Sci 42(13): 3173-81. Primers for short form-specific c-Maf amplification (Genbank accession #AF055376) were designed using PRIMER EXPRESS® software (Applied Biosystems). Forward and reverse primer sequences were […], SEQ ID NO:1, (nucleotides 3773-3799) and […], SEQ ID NO:2, (nucleotides 3823-3847), and the minor groove binding probe sequence was CTGCAAGCATATAATACA, SEQ ID NO:3, (nucleotides 3801-3818). 6FAM was bound to the 5′ end of the minor groove binding probe and refers to the type of fluorophore attached to the TAQMAN® probe. Other choices for the fluorophore are the JOE™ Fluorophore (Applied Biosystems) or VIC™ fluorophore (Applied Biosystems). The “Minor Groove Binding Non-Fluorescent Quencher” was bound to the 3′ end of the probe and is used to quench the fluorescence from 6FAM. […] Quantification of relative cDNA concentrations was done using the relative standard curve method as described in PE Biosystems User Bulletin #2, ABI PRISM® 7700 Sequence Detection System, 2001 (Applied BioSystems). […]
# Short form c-Maf gene expression was analyzed using the Affymetrix U133A GENECHIP® analysis described in Example 2 of a pool of glaucomatous trabecular meshwork cells designated SGTM2697. […]
# The effect of small molecule inhibition on short-form c-Maf gene expression was analyzed by QPCR analysis as described in Example 2 in glaucomatous trabecular meshwork (Passage 6) cells designated SGTM2697. […]
molecule,measurement,setting,value
C[C@@H]1C[C@H]2[C@@H]3CCC4=CC(=O)C=C[C@]4(C)[C@@]3(F)[C@@H](O)C[C@]2(C)[C@@]1(O)C(=O)CO [dexamethasone],"short form c-Maf upregulated compared to control, day one",[1]; 1 day,2.1 fold
same,"short form c-Maf upregulated compared to control, day 14",[1]; 14 days,3.2 fold
"CC(C)[C@H](CO)Nc1nc(Nc2cccc(Cl)c2)c2ncn(C(C)C)c2n1 [purvalanol A, 2-(1R-Isopropyl-2-hydroxyethylamino)-6-(3-chloroanilino)-9-isopropylpurine]",effect on TGFβ2-induced c-Maf expression,"[2]; SGTM2697 (Passage 6) cells, co-treatment with 5 ng/ml TGFβ2, 16 hours, n=6",completely abolished
same,basal c-Maf levels downregulated,"[2]; SGTM2697 (Passage 6) cells, without TGFβ2, 16 hours, n=6",2.6 fold
"TGFβ2: transforming growth factor beta 2, used for induction of gene expression (protein, UniProt P61812 303-414, looked up) Transforming growth factor …: ALDAAYCFRNVQDNCCLRPLYIDFKRDLGWKWIHEPKGYNANFCAGACPYLWSSDTQHSRVLSLYNTINPEASASPCCVSQDLEPLTILYYIGKTPKIEQLSNMIVKSCKCS",short-form c-Maf upregulated by TGFβ2,"[2]; SGTM2697 (Passage 6) cells, 5 ng/ml TGFβ2, 16 hours, n=6",17 fold
same,short form c-Maf upregulated compared to control,"[2]; pooled SGTM2697 cells, 5 ng/ml TGFβ2, 16 hours, c-Maf/18S normalized ratio, n=3",16 fold
